Measured values as given in US10813868B2, “Method of improving hair volume” (priority 2014, dated 2020).

Columns and labels:
[1] = Hair switch volume test (switches dosed, combed straight, dried overnight, image projection measured); conditions: for % benefit: 2% solution; for Volume: same batch of switches, 0.2 ml of 2% solution; for Volume / volume (projection of the switch image on to the screen): combed straight, dried overnight; for volume (projection of the switch image on to the screen): 0.2 ml of 2% solution per 2 g switch
Protocol: Dark brown European wavy #6 switches (from 2 different batches) of length 25 cm and weight 2 g were dosed with 0.2 ml each of 2% glucosamine.HCl salt solution. Control switches were wetted with water. All switches were combed straight and left to dry overnight. When dry the switches were combed straight and pictures taken. […] (Here volume refers to the projection of the switch image on to the screen and is given in mm^2).
Dark brown European wavy #6 switches of length 25 cm and weight 2 gms (from the same batch of switches), were dosed with 0.2 ml each of 2% solutions of various mono and diglucosamine salts. Control switches were treated with water.
All switches were combed straight and left to dry overnight.
When dry the switches were combed straight and pictures taken. […] (Here volume refers to the projection of the switch image on to the screen and is given in mm^2). The percentage benefit (i.e. increase in volume) with respect to control (water) is also given.

[2] = Half head test on a mannequin head, styled with a blow dryer; conditions: 2% solution on left half vs water on right half; picture the day following styling
Protocol: FIG. 1 is an image of a mannequin head taken the day following a test performed with one half (right hand side) treated with water and the other half (left hand side) treated with 2% glucosamine.HCI salt solution and followed by styling with a blow dryer. A half head test on a mannequin head was performed with one half (right hand side) treated with water and the other half (left hand side) treated with 2% glucosamine.HCl salt solution. The head was styled with a blow dryer for volume up benefit. FIG. 1 is a picture taken the day following the styling.

[3] = Example 2, increase in volume with respect to control (water)

Compound | % benefit [1, 3] | Volume ([1]; Example 2) | also measured
N[C@H]1C(O)O[C@H](CO)[C@@H](O)[C@@H]1O.O=C(O)/C=C/C(=O)O (some centres unmarked) [glucosamine fumarate] | 18.5% | 16802 mm^2 | –
NCC(=O)O.N[C@H]1C(O)O[C@H](CO)[C@@H](O)[C@@H]1O (some centres unmarked) [glucosamine glycinate] | 39.2% | 19748 mm^2 | –
CC(O)C(=O)O.N[C@H]1C(O)O[C@H](CO)[C@@H](O)[C@@H]1O (some centres unmarked) [glucosamine lactate] | 33.6% | 18944 mm^2 | –
N[C@H]1C(O)O[C@H](CO)[C@@H](O)[C@@H]1O.O=C(O)/C=C\C(=O)O (some centres unmarked) [glucosamine maleate] | 30.1% | 18450 mm^2 | –
N[C@H]1C(O)O[C@H](CO)[C@@H](O)[C@@H]1O.O=C(O)CC(=O)O (some centres unmarked) [glucosamine malonate] | 21.6% | 17244 mm^2 | –
N[C@H]1C(O)O[C@H](CO)[C@@H](O)[C@@H]1O.O=C(O)CCC(=O)O (some centres unmarked) [glucosamine succinate] | 13.5% | 16102 mm^2 | –
Cl.N[C@H]1C(O)O[C@H](CO)[C@@H](O)[C@@H]1O (some centres unmarked) [glucosamine•HCl, glucosamine hydrochloride] | – | – | volume (projection of the switch image on to the screen) ([1]; Batch 1 switches): 14236 mm^2; % benefit ([1]; Batch 1 switches, increase in volume vs water control): 6.7%; volume (projection of the switch image on to the screen) ([1]; Batch 2 switches): 16851 mm^2; % benefit ([1]; Batch 2 switches, increase in volume vs water control): 7.3%; volumising benefit (visual comparison) [2]: clearly evident
diglucosamine adipate | 28.3% | 18189 mm^2 | –
diglucosamine aspartate | 39.5% | 19780 mm^2 | –
diglucosamine fumarate | 38.0% | 19575 mm^2 | –
diglucosamine glutamate | 38.0% | 19575 mm^2 | –
diglucosamine glutarate | 35.6% | 19234 mm^2 | –
diglucosamine maleate | 34.3% | 19053 mm^2 | –
diglucosamine malonate | 34.3% | 19053 mm^2 | –
diglucosamine pimelate | 27.1% | 18021 mm^2 | –
diglucosamine succinate | 20.8% | 17136 mm^2 | –
glucosamine 2-pyrrolidone-5-carboxylate [glucosamine PCA] | 37.5% | 19505 mm^2 | –
glucosamine aspartate | 30.9% | 18566 mm^2 | –
glucosamine glutamate | 30.9% | 18563 mm^2 | –
glucosamine glutarate | 9.1% | 15475 mm^2 | –
glucosamine nicotinate | 41.6% | 20087 mm^2 | –
glucosamine pimelate | 13.4% | 16088 mm^2 | –
